Literature values as cited in patent US20070260203A1, “Vasoactive agent intraocular implant” (ALLERGAN, INC., priority 2006, published 2007).
Read-outs that look alike come from different tables or passages of the source.

Columns and labels:
endothelin-A receptor = molecular target: T1, endothelin-A receptor (Homo sapiens, UniProt P25101); details: competitive antagonist of both ETA and ETB
T1 sequence (P25101 21-427): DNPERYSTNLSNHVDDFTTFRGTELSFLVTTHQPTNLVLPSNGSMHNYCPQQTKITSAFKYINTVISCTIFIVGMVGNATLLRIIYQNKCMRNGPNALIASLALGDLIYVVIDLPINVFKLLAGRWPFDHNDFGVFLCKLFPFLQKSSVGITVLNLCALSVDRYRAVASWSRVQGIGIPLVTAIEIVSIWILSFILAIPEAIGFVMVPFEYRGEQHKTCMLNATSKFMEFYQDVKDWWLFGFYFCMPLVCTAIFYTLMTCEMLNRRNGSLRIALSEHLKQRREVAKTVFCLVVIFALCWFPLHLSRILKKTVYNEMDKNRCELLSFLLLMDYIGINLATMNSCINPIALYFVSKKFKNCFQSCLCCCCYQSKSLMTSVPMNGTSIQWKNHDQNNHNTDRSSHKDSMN

affinity for the ETA receptor relative to ETB receptor (endothelin-A receptor) | Structure (SMILES) | effective concentration (endothelin receptor antagonist, Giersbergen et al. 2005) | effective concentration (Yoshitomi et al. 2000, rabbit ciliary artery)
slightly higher affinity | COc1ccccc1Oc1c(NS(=O)(=O)c2ccc(C(C)(C)C)cc2)nc(-c2ncccn2)nc1OCCO [Bosentan] | 0.3 to 3 µg/mL | 
 | CC[C@@H]1C(=O)OC[C@@H]1Cc1cncn1C [pilocarpine] |  | 1 to 10 µM
